Test results as given in patent US20090253794A1, “Fibroblast Activator, Collagen Production Promoter, Collagen Contraction Promoter, Hyaluronic Acid Production Promoter, ATP Production Promoter, Melanin Formation Inhibitor, and Agent for External Application to the Skin” (priority 2005, published 2009).
“Also recorded” adds a separate entry of the source.

Tests used:
B16 melanoma cells = test: melanin formation suppression test, visual whitening and cell mass volume; assay type: cell-based, mouse; parameters: key to level of whitening: whitening high→++; whitening moderate→+; somewhat whitened→+−; no whitening→−; settings: 5 days; for level of whitening: visual evaluation; for change in cell mass volume: visual, cytotoxicity index
Procedure: A melanin formation suppression test was performed as follows using mouse melanoma cells. First, 2×10^4 B16 melanoma cells were plated in a 35 mm diameter dish containing Eagle's minimum nutrition medium (3 ml) supplemented with 10% (v/v) fetal bovine serum, and cultured in a carbon dioxide incubator adjusted to 5% (v/v) carbon dioxide gas at 37° C. for about 24 hr. Then, pure water or a sample dissolved in pure water was added thereto to a final concentration of 0.1 mM, 1.0 mM or 10 mM. As a positive control, kojic acid (manufactured by Sigma Ltd.) was added to the same concentration. The cells were cultured for 5 more days under the same conditions, treated with trypsin, and centrifuged to collect the cells in a 1.5 ml Eppendorf. The level of whitening of the cells was visually evaluated, and indicated: whitening high→++; whitening moderate→+; somewhat whitened→+−; no whitening→−. Simultaneously, changes in the cell mass volume was visually evaluated and used as a cytotoxicity index.

human normal melanocytes = test: melanin formation suppression test in human melanocytes (L-DOPA, absorbance 495 nm); assay type: cell-based; settings: 5 days, relative value, without addition of sample = 100
Procedure: A melanin formation suppression test was performed using human melanocytes (manufactured by KURABO INDUSTRIES LTD.). That is, human normal melanocytes amplified in Medium 254 medium (human melanocyte medium added with HMGS, manufactured by KURABO INDUSTRIES LTD.) was added to a 96 well plate at 10^4 cells per well, and cultured in a carbon dioxide incubator adjusted to 5% (v/v) carbon dioxide gas at 37° C. for about 24 hr. Then, pure water or a sample (conagenin) dissolved in pure water was added thereto to a final concentration of 0.1 mM, 1.0 mM or 10 mM. As a positive control, kojic acid (manufactured by Sigma Ltd.) was added to the same concentration. The cells were cultured for 5 more days under the same conditions. To the recovered cells was added 50 μl of cell suspension (PBS buffer containing Triton X-100 at 0.1% (v/v)). After thorough suspending, the suspension was stood at 4° C. for 1 hr. Thereto was added 50 μl of 10 mM L-DOPA (manufactured by Nacalai Tesque), and the mixture was incubated at 37° C. for 1 hr. Thereafter, the absorbance at 495 nm was measured by a plate reader (multiscanplus MKII, manufactured by Japan Flow Laboratory), and the melanin formation amount was measured (shown in a relative value to the value without addition of sample as 100).

O=c1cc(CO)occ1O [kojic acid, reference compound]
level of whitening (B16 melanoma cells; 0.1 mM): +−
change in cell mass volume (B16 melanoma cells; 0.1 mM): none
level of whitening (B16 melanoma cells; 1 mM): +
change in cell mass volume (B16 melanoma cells; 1 mM): none
change in cell mass volume (B16 melanoma cells; 10 mM): cell death occurred; also recorded: yes (cell death)
melanin formation amount (human normal melanocytes; 100 μM): 105
melanin formation amount (human normal melanocytes; 1 mM): 88
